Test results reported in patent publication US20240408169A1 (priority 2023, published 2024).
Read-outs that look alike come from different tables or passages of the source. *1 amine or outer side, *2 acyl side, *3 side chain or, on linkers, in order; H or OH if unused. Where a SMILES comes first, the peptide text is derived from it. Bridges are numbered along the chain shown (N, C = ends). [ ]: non-standard residue; d: D form. The star is where a group is joined. X127 = CN([C@@H](Cc1cc(F)ccc1-c1cnn(S(=O)(=O)C2CC2)c1)C(=O)[*:2])[*:1]; X42 = CN([C@@H](Cc1cc(Cl)ccc1-c1cnn(S(=O)(=O)C2CC2)c1)C(=O)[*:2])[*:1]; X209 = CN([C@@H](Cc1cc(Cl)ccc1-c1cnc2nn(C)cc2c1)C(=O)[*:2])[*:1]; X172 = CC(=O)N1CC=C(c2ccc(F)cc2C[C@@H](C(=O)[*:2])N(C)[*:1])CC1; X26 = CN([C@@H](Cc1cc(F)ccc1-c1cnn(C2CC2)c1)C(=O)[*:2])[*:1]; NMe3Pal(2-OiBu,5-Cl) = CN[C@@H](Cc1cc(Cl)cnc1OCC(C)C)C(=O)O; NMehhhLys(Me) = CN([C@@H](CCCCCCCN(C)[*:3])C(=O)[*:2])[*:1]; X180 = CN([C@@H](Cc1cc(F)ccc1-c1cnn2c1CCC2)C(=O)[*:2])[*:1]; X135 = CN([C@@H](Cc1cc(Cl)ccc1-c1cn(C)cn1)C(=O)[*:2])[*:1]; X174 = CN([C@@H](Cc1cc(Cl)cnc1-c1cnn(C)c1)C(=O)[*:2])[*:1]; X112 = CN([C@@H](Cc1cc(F)ccc1-c1cnn(C)c1)C(=O)[*:2])[*:1]; X131 = CN([C@@H](Cc1cc(F)cnc1-c1cnn(C)c1)C(=O)[*:2])[*:1]; X154 = Cc1oncc1-c1ccc(Cl)cc1C[C@@H](C(=O)[*:2])N(C)[*:1]; NMe(hhhLys) = CN([C@@H](CCCCCCCN[*:3])C(=O)[*:2])[*:1]; Oxane2carbonyl(2R-CF3) = O=C([C@@]1(C(F)(F)F)CCCCO1)*; Cyclobutanecarbonyl(1-CF3) = O=C(C1(C(F)(F)F)CCC1)*; cBuCO(3,3-F2-1-CF3) = O=C(C1(C(F)(F)F)CC(F)(F)C1)*; X4 = Cc1ccc(Cl)cc1C[C@@H](C(=O)[*:2])N(C)[*:1]; Pro(trans-4-F) = O=C(O)[C@@H]1C[C@@H](F)CN1; Gly(cPr) = N[C@H](C(=O)O)C1CC1

Legend:
CyclinA2/CDK2 = target: T1, CyclinA2/CDK2 (Homo sapiens, UniProt P20248); test: Fluorescence Polarization (FP) competitive binding assay, Cyclin A2/Cdk2;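 also: plates equilibrated two hours at room temperature before polarization reading, IC50 fitted from eight-concentration compound titration curves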
T1 construct: purchased CRELUX Protein Services

CyclinB1/CDK1 = target: T2, CyclinB1/CDK1 (Homo sapiens, UniProt P14635); test: Fluorescence Polarization (FP) competitive binding assay, Cyclin B1/Cdk1;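 also: fluorescence polarization read after equilibration at room temperature, with IC50 taken from serially diluted dose-response curves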
T2 construct: purchased Eurofins, discovery 14-450

CyclinE1/CDK2 = target: T3, CyclinE1/CDK2 (Homo sapiens, UniProt P24864); test: Fluorescence Polarization (FP) competitive binding assay, Cyclin E1/Cdk2;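 also: readings taken after two-hour equilibration at room temperature in HEPES buffer with NaCl, DTT, NP-40 and BSA, IC50 fitted from eight-concentration serial dilution series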
T3 construct: purchased Eurofins, discovery 14-475

NCI-H1048 cells = test: MTT proliferation assay, NCI-H1048; format: cell-based; conditions: 5 days compound exposure, 1:3 serial dilution starting at 10 μM;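 also: Dose-response in 96-well plates over 8 or 10 concentration points, with exposure spanning 3-4 cell doublings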
OVCAR3 cells = test: MTT proliferation assay, OVCAR3; format: cell-based; conditions: 5 days compound exposure, 1:3 serial dilution starting at 10 μM;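 also: compound given as an 8- or 10-point series, one day after plating, with exposure covering roughly 3-4 cell doublings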
[1] = read-out: Cyclin B FP IC50; 10 nM Cyclin B1/Cdk1, 2 nM FAM probe; average of 2-3 independent experiments
[2] = 8 nM Cyclin A2/Cdk2, 2 nM FAM probe, average of 2-3 independent experiments, read-out: Cyclin A FP IC50
[3] = 10 nM Cyclin B1/Cdk1, 2 nM FAM probe; average of 2-3 independent experiments; read-out: Cyclin B FP IC50
[4] = 10 nM Cyclin E1/Cdk2, 2 nM FAM probe, average of 2-3 independent experiments, read-out: Cyclin E FP IC50
[5] = read-out: Cyclin A FP IC50, 8 nM Cyclin A2/Cdk2, 2 nM FAM probe, average of 2-3 independent experiments

Row | Compound | IC50 (CyclinA2/CDK2) [nM] | IC50 (CyclinB1/CDK1; [1]) [nM] | IC50 (CyclinE1/CDK2) [nM] | GI50 (NCI-H1048 cells) [nM] | GI50 (OVCAR3 cells) [nM] | IC50 (CyclinA2/CDK2; [2]) [nM] | IC50 (CyclinB1/CDK1; [3]) [nM] | IC50 (CyclinE1/CDK2; [4]) [nM] | IC50 (CyclinA2/CDK2; [5]) [nM]
1 | Cc1oncc1-c1ccc(Cl)cc1C[C@H]1C(=O)N(C)CCCCCCC[C@H](N(C)C(=O)[C@@H](NC(=O)[C@@H]2C[C@@H](F)CN2C(=O)C2(C(F)(F)F)CC(F)(F)C2)C2CC2)C(=O)N[C@@H](CC(C)C)C(=O)N1C [Example 212] ({cBuCO(3,3-F2-1-CF3)}-[Pro(trans-4-F)][Gly(cPr)][NMehhhLys(Me)]L[X154]; lactam 3-C) | 70 | 20 | 4160 | 80 | 80 |  |  |  | 
2 | CC(C)C[C@@H]1NC(=O)[C@@H](N(C)C(=O)[C@@H](NC(=O)[C@@H]2C[C@@H](F)CN2C(=O)C2(C(F)(F)F)CC(F)(F)C2)C2CC2)CCCCCCCNC(=O)[C@H](Cc2cc(F)ccc2-c2cnn(C3CC3)c2)N(C)C1=O [Example 213] ({cBuCO(3,3-F2-1-CF3)}-[Pro(trans-4-F)][Gly(cPr)][NMe(hhhLys)]L[X26]; lactam 3-C) |  |  |  | 10 | 10 | 30 | 20 | 190 | 
3 | CC(C)C[C@@H]1NC(=O)[C@@H](N(C)C(=O)[C@@H](NC(=O)[C@@H]2C[C@@H](F)CN2C(=O)C2(C(F)(F)F)CC(F)(F)C2)C2CC2)CCCCCCCNC(=O)[C@H](Cc2cc(F)ccc2-c2cnn3c2CCC3)N(C)C1=O [Example 214] ({cBuCO(3,3-F2-1-CF3)}-[Pro(trans-4-F)][Gly(cPr)][NMe(hhhLys)]L[X180]; lactam 3-C) | 50 | 20 | 500 | 10 | 10 |  |  |  | 
4 | CC(C)C[C@@H]1NC(=O)[C@@H](N(C)C(=O)[C@@H](NC(=O)[C@@H]2C[C@@H](F)CN2C(=O)C2(C(F)(F)F)CC(F)(F)C2)C2CC2)CCCCCCCNC(=O)[C@H](Cc2cc(F)ccc2-c2cnn(C)c2)N(C)C1=O [Example 215] ({cBuCO(3,3-F2-1-CF3)}-[Pro(trans-4-F)][Gly(cPr)][NMe(hhhLys)]L[X112]; lactam 3-C) |  | 20 | 200 | 10 | 10 |  |  |  | 20
5 | CC(=O)N1CC=C(c2ccc(F)cc2C[C@H]2C(=O)NCCCCCCC[C@H](N(C)C(=O)[C@@H](NC(=O)[C@@H]3C[C@@H](F)CN3C(=O)C3(C(F)(F)F)CC(F)(F)C3)C3CC3)C(=O)N[C@@H](CC(C)C)C(=O)N2C)CC1 [Example 217] ({cBuCO(3,3-F2-1-CF3)}-[Pro(trans-4-F)][Gly(cPr)][NMe(hhhLys)]L[X172]; lactam 3-C) |  |  |  | 10 | 20 | 30 | 20 | 760 | 
6 | CC(C)COc1ncc(Cl)cc1C[C@H]1C(=O)N(C)CCCCCCC[C@H](N(C)C(=O)[C@@H](NC(=O)[C@@H]2C[C@@H](F)CN2C(=O)[C@@]2(C(F)(F)F)CCCCO2)C2CC2)C(=O)N[C@@H](CC(C)C)C(=O)N1C [Example 229] ({Oxane2carbonyl(2R-CF3)}-[Pro(trans-4-F)][Gly(cPr)][NMehhhLys(Me)]L[NMe3Pal(2-OiBu,5-Cl)]; lactam 3-C) |  | 20 | 100 | 10 | 20 |  |  |  | 20
7 | CC(C)C[C@@H]1NC(=O)[C@@H](N(C)C(=O)[C@@H](NC(=O)[C@@H]2C[C@@H](F)CN2C(=O)C2(C(F)(F)F)CC(F)(F)C2)C2CC2)CCCCCCCN(C)C(=O)[C@H](Cc2cc(Cl)ccc2-c2cn(C)cn2)N(C)C1=O [Example 242] ({cBuCO(3,3-F2-1-CF3)}-[Pro(trans-4-F)][Gly(cPr)][NMehhhLys(Me)]L[X135]; lactam 3-C) | 30 | 20 | 700 | 30 | 20 |  |  |  | 
8 | CC(C)C[C@@H]1NC(=O)[C@@H](N(C)C(=O)[C@@H](NC(=O)[C@@H]2C[C@@H](F)CN2C(=O)C2(C(F)(F)F)CC(F)(F)C2)C2CC2)CCCCCCCN(C)C(=O)[C@H](Cc2cc(F)cnc2-c2cnn(C)c2)N(C)C1=O [Example 244] ({cBuCO(3,3-F2-1-CF3)}-[Pro(trans-4-F)][Gly(cPr)][NMehhhLys(Me)]L[X131]; lactam 3-C) |  |  |  | 100 | 40 | 60 | 20 | 580 | 
9 | CC(C)C[C@@H]1NC(=O)[C@@H](N(C)C(=O)[C@@H](NC(=O)[C@@H]2C[C@@H](F)CN2C(=O)C2(C(F)(F)F)CCC2)C2CC2)CCCCCCCN(C)C(=O)[C@H](Cc2cc(F)cnc2-c2cnn(C)c2)N(C)C1=O [Example 245] ({Cyclobutanecarbonyl(1-CF3)}-[Pro(trans-4-F)][Gly(cPr)][NMehhhLys(Me)]L[X131]; lactam 3-C) | 40 | 20 | 220 | 80 | 20 |  |  |  | 
10 | CC(C)C[C@@H]1NC(=O)[C@@H](N(C)C(=O)[C@@H](NC(=O)[C@@H]2C[C@@H](F)CN2C(=O)C2(C(F)(F)F)CC(F)(F)C2)C2CC2)CCCCCCCN(C)C(=O)[C@H](Cc2cc(Cl)cnc2-c2cnn(C)c2)N(C)C1=O [Example 246] ({cBuCO(3,3-F2-1-CF3)}-[Pro(trans-4-F)][Gly(cPr)][NMehhhLys(Me)]L[X174]; lactam 3-C) |  | 20 | 640 | 30 | 10 |  |  |  | 20
11 | CC(C)C[C@@H]1NC(=O)[C@@H](N(C)C(=O)[C@@H](NC(=O)[C@@H]2C[C@@H](F)CN2C(=O)C2(C(F)(F)F)CCC2)C2CC2)CCCCCCCN(C)C(=O)[C@H](Cc2cc(Cl)cnc2-c2cnn(C)c2)N(C)C1=O [Example 247] ({Cyclobutanecarbonyl(1-CF3)}-[Pro(trans-4-F)][Gly(cPr)][NMehhhLys(Me)]L[X174]; lactam 3-C) |  |  |  | 50 | 40 | 20 | 20 | 310 | 
12 | CC(C)C[C@@H]1NC(=O)[C@@H](N(C)C(=O)[C@@H](NC(=O)[C@@H]2C[C@@H](F)CN2C(=O)[C@@]2(C(F)(F)F)CCCCO2)C2CC2)CCCCCCCN(C)C(=O)[C@H](Cc2cc(Cl)cnc2-c2cnn(C)c2)N(C)C1=O [Example 248] ({Oxane2carbonyl(2R-CF3)}-[Pro(trans-4-F)][Gly(cPr)][NMehhhLys(Me)]L[X174]; lactam 3-C) |  | 20 | 100 | 40 | 20 |  |  |  | 20
13 | CC(C)C[C@@H]1NC(=O)[C@@H](N(C)C(=O)[C@@H](NC(=O)[C@@H]2C[C@@H](F)CN2C(=O)C2(C(F)(F)F)CC(F)(F)C2)C2CC2)CCCCCCCN(C)C(=O)[C@H](Cc2cc(Cl)ccc2-c2cnc3nn(C)cc3c2)N(C)C1=O [Example 249] ({cBuCO(3,3-F2-1-CF3)}-[Pro(trans-4-F)][Gly(cPr)][NMehhhLys(Me)]L[X209]; lactam 3-C) |  | 20 | 590 | 10 | 10 |  |  |  | 20
14 | CC(C)C[C@@H]1NC(=O)[C@@H](N(C)C(=O)[C@@H](NC(=O)[C@@H]2C[C@@H](F)CN2C(=O)C2(C(F)(F)F)CC(F)(F)C2)C2CC2)CCCCCCCN(C)C(=O)[C@H](Cc2cc(F)ccc2-c2cnn(S(=O)(=O)C3CC3)c2)N(C)C1=O [Example 252] ({cBuCO(3,3-F2-1-CF3)}-[Pro(trans-4-F)][Gly(cPr)][NMehhhLys(Me)]L[X127]; lactam 3-C) | 30 | 20 | 380 | 10 | 20 |  |  |  | 
15 | CC(C)C[C@@H]1NC(=O)[C@@H](N(C)C(=O)[C@@H](NC(=O)[C@@H]2C[C@@H](F)CN2C(=O)C2(C(F)(F)F)CC(F)(F)C2)C2CC2)CCCCCCCN(C)C(=O)[C@H](Cc2cc(Cl)ccc2-c2cnn(S(=O)(=O)C3CC3)c2)N(C)C1=O [Example 254] ({cBuCO(3,3-F2-1-CF3)}-[Pro(trans-4-F)][Gly(cPr)][NMehhhLys(Me)]L[X42]; lactam 3-C) |  |  |  | 20 | 20 | 30 | 20 | 970 | 
16 | Cc1ccc(Cl)cc1C[C@H]1C(=O)N(C)CCCCCCC[C@H](N(C)C(=O)[C@@H](NC(=O)[C@@H]2C[C@@H](F)CN2C(=O)C2(C(F)(F)F)CC(F)(F)C2)C2CC2)C(=O)N[C@@H](CC(C)C)C(=O)N1C [Example 263] ({cBuCO(3,3-F2-1-CF3)}-[Pro(trans-4-F)][Gly(cPr)][NMehhhLys(Me)]L[X4]; lactam 3-C) |  |  |  | 30 | 40 | 30 | 20 | 200 | 
